Test results as given in ChEMBL document CHEMBL1146912, “Synthesis, radiolabeling, and in vivo evaluation of an 18F-labeled isatin analog for imaging caspase-3 activation in apoptosis” (Bioorg Med Chem Lett, 2006).

How the values were obtained:
Caspase-6 = biological target: T1, Caspase-6 (Homo sapiens, UniProt P55212); assay: Inhibition of human recombinant caspase 6
T1 sequence (P55212 whole entry): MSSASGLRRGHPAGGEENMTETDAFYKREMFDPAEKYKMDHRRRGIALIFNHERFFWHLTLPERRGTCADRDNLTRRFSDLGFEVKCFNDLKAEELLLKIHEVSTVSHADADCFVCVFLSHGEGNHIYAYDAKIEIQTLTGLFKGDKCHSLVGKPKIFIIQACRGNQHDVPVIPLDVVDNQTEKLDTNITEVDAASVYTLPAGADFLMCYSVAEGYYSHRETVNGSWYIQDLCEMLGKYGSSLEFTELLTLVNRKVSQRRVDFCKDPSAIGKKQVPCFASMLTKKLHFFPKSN

Caspase-8 = Caspase-8 (Homo sapiens, UniProt Q14790); assay: Inhibition of human recombinant caspase 8
Caspase-1 = biological target: T2, Caspase-1 (Homo sapiens, UniProt P29466); assay: Inhibition of human recombinant caspase 1
T2 sequence (P29466 whole entry): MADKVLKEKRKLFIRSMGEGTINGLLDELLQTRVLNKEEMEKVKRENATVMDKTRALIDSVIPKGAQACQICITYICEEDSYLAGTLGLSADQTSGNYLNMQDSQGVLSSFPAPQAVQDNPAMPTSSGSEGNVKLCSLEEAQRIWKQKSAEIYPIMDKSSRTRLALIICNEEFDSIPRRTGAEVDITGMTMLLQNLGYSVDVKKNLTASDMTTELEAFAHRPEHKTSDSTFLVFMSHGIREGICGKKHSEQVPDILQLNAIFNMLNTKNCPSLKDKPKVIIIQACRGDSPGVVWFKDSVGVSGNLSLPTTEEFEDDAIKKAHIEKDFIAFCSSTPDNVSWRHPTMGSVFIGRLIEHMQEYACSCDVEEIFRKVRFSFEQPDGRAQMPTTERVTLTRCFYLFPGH

Caspase-3 = biological target: T3, Caspase-3 (Homo sapiens, UniProt P42574); assay: Inhibition of human recombinant caspase 3
T3 sequence (P42574 whole entry): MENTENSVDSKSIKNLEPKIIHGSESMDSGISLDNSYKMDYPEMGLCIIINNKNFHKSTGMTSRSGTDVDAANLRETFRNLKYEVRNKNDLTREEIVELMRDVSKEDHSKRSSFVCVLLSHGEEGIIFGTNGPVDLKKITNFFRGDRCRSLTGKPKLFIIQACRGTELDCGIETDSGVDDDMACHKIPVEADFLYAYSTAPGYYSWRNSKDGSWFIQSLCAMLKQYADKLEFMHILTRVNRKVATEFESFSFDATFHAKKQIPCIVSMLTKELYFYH

Rattus norvegicus [1] = species on record: Rattus norvegicus; assay: Increase in uptake in liver of cycloheximide-treated Sprague-Dawley rat relative to control after 1 hr; assay type: ADME, organism-based; conditions: in vivo
Rattus norvegicus [2] = species on record: Rattus norvegicus; assay: Effect on uptake in fat of cycloheximide-treated Sprague-Dawley rat relative to control after 1 hr; assay type: ADME, organism-based, Adipose tissue; conditions: in vivo
Rattus norvegicus [3] = species on record: Rattus norvegicus; assay: Increase in uptake in spleen of cycloheximide-treated Sprague-Dawley rat relative to control after 1 hr; assay type: ADME, organism-based; conditions: in vivo

Chain of Caspase-8 (Q14790 217-374 limits assumed): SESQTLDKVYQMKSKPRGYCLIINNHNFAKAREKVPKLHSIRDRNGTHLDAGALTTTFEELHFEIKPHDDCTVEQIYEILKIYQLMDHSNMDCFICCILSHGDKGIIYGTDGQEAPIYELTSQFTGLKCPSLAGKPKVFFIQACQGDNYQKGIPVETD
Chain of Caspase-8 (Q14790 385-479 limits assumed): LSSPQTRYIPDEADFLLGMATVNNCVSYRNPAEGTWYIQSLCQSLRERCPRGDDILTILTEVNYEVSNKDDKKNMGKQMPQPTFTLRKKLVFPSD

Row | IC50 (Caspase-6) | IC50 (Caspase-8) | IC50 (Caspase-1) | IC50 (Caspase-3) | Activity (Rattus norvegicus [1]) | Activity (Rattus norvegicus [2]) | Activity (Rattus norvegicus [3]) | Structure (SMILES)
1 | 3.7 µM | > 50 µM | > 50 µM | 0.0097 µM | – | – | – | O=C1C(=O)N(Cc2ccc(OCCF)cc2)c2ccc(S(=O)(=O)N3CCC[C@H]3COc3ccccc3)cc21
2 | – | – | – | – | 94% | Not Active | 184% | O=C1C(=O)N(Cc2ccc(OCC[18F])cc2)c2ccc(S(=O)(=O)N3CCC[C@H]3COc3ccccc3)cc21
